From patent US8309685B2 (Celgene Avilomics Research, Inc., priority 2007, dated 2012)

How the values were obtained:
Assay type in all cases: biochemical
[1] = target: T1, wild type HCV NS3/4A 1b protease enzyme (Hepatitis C virus genotype 1b, UniProt P26663); experiment: HCV Protease FRET Assay (IC50_APP), wild type
T1 construct: 10× stocks of NS3/4A protease enzyme from Bioenza (Mountain View, Calif.); purchased Bioenza (Mountain View, Calif.)

[2] = target: T2, D168A mutant of the HCV NS3/4A 1b protease enzyme (Hepatitis C virus genotype 1b, UniProt P26663, D1194A); experiment: HCV Protease FRET Assay (IC50_APP), D168A mutant; conditions: apparent IC50, D168A mutant; read-out: IC50_APP, HCV D168A
T2 construct: 10× stocks of NS3/4A protease enzyme from Bioenza (Mountain View, Calif.); purchased Bioenza (Mountain View, Calif.)

[3] = target: T3, R155K mutant of the HCV NS3/4A 1b protease enzyme (Hepatitis C virus genotype 1b, UniProt P26663, R1181K); experiment: HCV Protease FRET Assay (IC50_APP), R155K mutant; conditions: apparent IC50, R155K mutant; read-out: IC50_APP, HCV R155K
T3 construct: 10× stocks of NS3/4A protease enzyme from Bioenza (Mountain View, Calif.); purchased Bioenza (Mountain View, Calif.)
Method: HCV Protease FRET Assay for WT and Mutated NS3/4A 1b Enzymes (IC50—APP).
The following protocol was used to generate “apparent” IC50 (IC50—APP) values as depicted in Table 6, below. […] 5 μL of each enzyme were added to Corning (#3575) 384-well, black, microtiter plates (Corning, N.Y.) after spotting a 0.5 μL volume of 50% DMSO and serially diluted compounds prepared in 50% DMSO. Protease reactions were immediately started after enzyme addition with the addition of 45 μL of the FRET substrate and monitored for 60-90 minutes at λex485/λem520 in a Synergy^4 plate reader from BioTek (Winooski, Vt.). At the conclusion of each assay, progress curves from each well were examined for linear reaction kinetics and fit statistics (R^2, 95% confidence intervals, absolute sum of squares).
The compound numbers correspond to the compound numbers in Table 3. […] ;

[4] = target: T1, wild type HCV NS3/4A 1b protease enzyme; experiment: biochemical
Method: (§1) HCV Protease FRET Assay for Wild Type and Mutated NS3/4A 1b Enzymes (IC50)
(§2) Protease reactions were started with the addition of 45 μL of the FRET substrate and monitored for 120 minutes at λex487/λem514 through Quad^4 monochromoters in a Synergy^4 plate reader from BioTek (Winooski, Vt.). At the conclusion of each assay, progress curves from each well were examined for linear reaction kinetics and fit statistics (R^2, absolute sum of squares).
(§3) The compound numbers correspond to the compound numbers in Table 3.

[5] = target: T2, D168A mutant of the HCV NS3/4A 1b protease enzyme; experiment: HCV Protease FRET Assay (IC50), D168A mutant
Method: as §1, §2, §3

[6] = read-out: IC50_APP, WT, apparent IC50, wild type NS3/4A 1b
[7] = read-out: Inhibition, WT, WT enzyme, FRET assay
[8] = read-out: Inhibition, HCV D168A, D168A enzyme, FRET assay

Compound: C=CC(=O)N(C)C[C@@H]1NC(=O)OCCC/C=C/c2ccc3ccnc(c3c2)O[C@@H]2C[C@@H](C(=O)N[C@]3(C(=O)NS(=O)(=O)C4CC4)C[C@H]3C=C)N(C2)C1=O [Compound I-83]
- IC50 [1]: 10 to 100 nM
- IC50 [2]: 1000 to 10000 nM
- IC50 [3]: 1000 to 10000 nM

Compound: C=CC(=O)NC[C@H](NC(=O)CCCC(=O)NCCCOCCOCCOCCCNC(=O)CCCC[C@@H]1SC[C@@H]2NC(=O)N[C@@H]21)C(=O)N1C[C@H](Oc2nccc3cc(OC)ccc23)C[C@H]1C(=O)N[C@]1(C(=O)NS(=O)(=O)C2CC2)C[C@H]1C=C [Compound I-104]
- IC50 [1, 6]: < 10 nM
- IC50 [2]: 10 to 100 nM
- IC50 [3]: 10 to 100 nM

Compound: C=C[C@@H]1C[C@]1(NC(=O)[C@@H]1C[C@@H](Oc2nccc3cc(OC)ccc23)CN1C(=O)[C@H](CC(=O)/C(C)=C/C)NC(=O)OC(C)(C)C)C(=O)NS(=O)(=O)C1CC1 [Compound I-133]
- IC50 [1, 6]: < 10 nM
- IC50 [2]: 100 to 1000 nM
- IC50 [3]: 10 to 100 nM

Compound: C=C[C@@H]1C[C@]1(NC(=O)[C@@H]1C[C@@H](Oc2nccc3cc(OC)ccc23)CN1C(=O)[C@H](CCC(=O)/C=C/C(C)(C)C)NC(=O)OC(C)(C)C)C(=O)NS(=O)(=O)C1CC1 [Compound I-143]
- IC50 [1, 6]: < 10 nM
- IC50 [2]: 1000 to 10000 nM
- IC50 [3]: 100 to 1000 nM

Compound: C=C[C@@H]1C[C@]1(NC(=O)[C@@H]1C[C@@H](Oc2cc(-c3ccccc3)nc3cc(OC)ccc23)CN1C(=O)C1(NC(=O)OC(C)(C)C)CCNCC1)C(=O)NS(=O)(=O)c1ccccc1 [Compound I-24, tert-butyl-4-((2S,4R)-4-(7-methoxy-2-phenylquinolin-4-yloxy)-2-((1R,2S)-1-(phenylsulfonylcarbamoyl)-2-vinylcyclopropylcarbamoyl)pyrrolidine-1-carbonyl)piperidin-4-ylcarbamate]
- IC50 [4, 7]: 100 to 1000 nM
- IC50 [5, 8]: 1000 to 10000 nM

Compound: C=C[C@@H]1C[C@]1(NC(=O)[C@@H]1C[C@@H](Oc2cc(-c3ccccc3)nc3cc(OC)ccc23)CN1C(=O)CNC(=O)CC)C(=O)NS(=O)(=O)c1ccccc1 [I^R-27, (2S,4R)-4-(7-methoxy-2-phenylquinolin-4-yloxy)-N-((1R,2S)-1-(phenylsulfonylcarbamoyl)-2-vinylcyclopropyl)-1-(2-propionamidoacetyl)pyrrolidine-2-carboxamide]
- IC50 [4]: 100 to 1000 nM
- IC50 [5]: 1000 to 10000 nM

Compound: C=C[C@@H]1C[C@]1(NC(=O)[C@@H]1C[C@@H](Oc2cc(-c3ccccc3)nc3cc(OC)ccc23)CN1C(=O)[C@H](CNC(=O)[C@H](C)Cl)NC(=O)OC(C)(C)C)C(=O)NS(=O)(=O)c1ccccc1 [Compound I-21, tert-butyl(S)-3-((S)-2-chloropropanamido)-1-((2S,4R)-4-(7-methoxy-2-phenylquinolin-4-yloxy)-2-((1R,2S)-1-(phenylsulfonylcarbamoyl)-2-vinylcyclopropylcarbamoyl)pyrrolidin-1-yl)-1-oxopropan-2-ylcarbamate]
- IC50 [4, 7]: < 10 nM
- IC50 [5, 8]: 100 to 1000 nM

Compound: C=C[C@@H]1C[C@]1(NC(=O)[C@@H]1C[C@@H](Oc2nccc3cc(OC)ccc23)CN1C(=O)[C@@H](NC(=O)OC(C)(C)C)C(C)(C)C(=O)C=C(C)C)C(=O)NS(=O)(=O)C1CC1 [Compound I-134]
- IC50 [1, 6]: < 10 nM
- IC50 [2]: 100 to 1000 nM
- IC50 [3]: 10 to 100 nM

Compound: C=CC(=O)OC(C)(C)[C@H](NC(=O)OC(C)(C)C)C(=O)N1CC(Oc2cc(-c3ccccc3)nc3cc(OC)ccc23)C[C@H]1C(=O)N[C@]1(C(=O)NS(=O)(=O)C2CC2)C[C@H]1C=C (some centres unmarked) [Compound I-40]
- IC50 [4, 7]: 10 to 100 nM
- IC50 [5, 8]: < 10 nM

Compound: C=C[C@@H]1C[C@]1(NC(=O)[C@@H]1C[C@@H](Oc2nccc3cc(OC)ccc23)CN1C(=O)[C@H](CCC(=O)/C=C/c1ccccc1)NC(=O)OC(C)(C)C)C(=O)NS(=O)(=O)C1CC1 [Compound I-137]
- IC50 [1, 6]: 10 to 100 nM
- IC50 [2]: 1000 to 10000 nM
- IC50 [3]: 1000 to 10000 nM

Compound: C=C[C@@H]1C[C@]1(NC(=O)[C@@H]1C[C@@H](Oc2cc(-c3ccccc3)nc3cc(OC)ccc23)CN1C(=O)CNC(=O)C(=C)C)C(=O)NS(=O)(=O)c1ccccc1 [Compound I-44, (2S,4R)-1-(2-methacrylamidoacetyl)-4-(7-methoxy-2-phenylquinolin-4-yloxy)-N-((1R,2S)-1-(phenylsulfonylcarbamoyl)-2-vinylcyclopropyl)pyrrolidine-2-carboxamide]
- IC50 [4, 7]: 10 to 100 nM
- IC50 [5, 8]: 1000 to 10000 nM

Compound: C=CC(=O)NC[C@H](NC(=O)CCCC[C@H]1SC[C@H]2NC(=O)N[C@H]21)C(=O)N1C[C@H](Oc2nccc3cc(OC)ccc23)C[C@H]1C(=O)N[C@]1(C(=O)NS(=O)(=O)C2CC2)C[C@H]1C=C [Compound I-103, 1-{3-Acryloylamino-2-[5-(2-oxo-hexahydro-thieno[3,4-d]imidazol-6-yl)-pentanoylamino]-propionyl}-4-(6-methoxy-isoquinolin-1-yloxy)-pyrrolidine-2-carboxylic acid (1-cyclopropanesulfonylaminocarbonyl-2-vinyl-cyclopropyl)-amide]
- IC50 [1, 6]: 10 to 100 nM
- IC50 [2]: 10 to 100 nM
- IC50 [3]: 100 to 1000 nM

Compound: [2H]C([2H])([2H])C(=CC(=O)CC[C@H](NC(=O)OC(C)(C)C)C(=O)N1C[C@H](Oc2nccc3cc(OC)ccc23)C[C@H]1C(=O)N[C@]1(C(=O)NS(=O)(=O)C2CC2)C[C@H]1C=C)C([2H])([2H])[2H] [Compound I-142]
- IC50 [1, 6]: < 10 nM
- IC50 [2]: 100 to 1000 nM
- IC50 [3]: 10 to 100 nM

Compound: C=C[C@@H]1C[C@]1(NC(=O)[C@@H]1C[C@@H](Oc2cc(-c3ccccc3)nc3cc(OC)ccc23)CN1C(=O)CNC(=O)OC(C)(C)C)C(=O)NS(=O)(=O)C1CC1 [Compound I-38, tert-butyl-2-((2S,4R)-2-((1R,2S)-1-(cyclopropylsulfonylcarbamoyl)-2-vinylcyclopropylcarbamoyl)-4-(7-methoxy-2-phenylquinolin-4-yloxy)pyrrolidin-1-yl)-2-oxoethylcarbamate]
- IC50 [4, 7]: < 10 nM
- IC50 [5, 8]: 100 to 1000 nM

Compound: C=C[C@@H]1C[C@]1(NC(=O)[C@@H]1C[C@@H](Oc2cc(-c3ccccc3)nc3cc(OC)ccc23)CN1C(=O)CNC(=O)C#CC)C(=O)NS(=O)(=O)c1ccccc1 [Compound I-43, (2S,4R)-1-(2-but-2-ynamidoacetyl)-4-(7-methoxy-2-phenylquinolin-4-yloxy)-N-((1R,2S)-1-(phenylsulfonylcarbamoyl)-2-vinylcyclopropyl)pyrrolidine-2-carboxamide]
- IC50 [4, 7]: 100 to 1000 nM
- IC50 [5, 8]: 1000 to 10000 nM

Compound: C=C[C@@H]1C[C@]1(NC(=O)[C@@H]1C[C@@H](Oc2cc(-c3ccccc3)nc3cc(OC)ccc23)CN1C(=O)[C@H](CNC(=O)[C@@H](C)Cl)NC(=O)OC(C)(C)C)C(=O)NS(=O)(=O)c1ccccc1 [Compound I-13, N-[(1,1-dimethylethoxy)carbonyl]-3-[R-(chloropropionyl)amino]-L-alanyl-(4R)-4-[(7-methoxy-2-phenyl-4-quinolinyl)oxy]-L-prolyl-1-amino-2-ethenyl-N-(phenylsulfonyl)-(1R,2S)-cyclopropanecarboxamide]
- IC50 [4, 7]: < 10 nM
- IC50 [5, 8]: 100 to 1000 nM

Compound: C=C[C@@H]1C[C@]1(NC(=O)[C@@H]1C[C@@H](Oc2cc(-c3ccccc3)nc3cc(OC)ccc23)CN1C(=O)[C@H](CNC(=O)C1(C#N)CC1)NC(=O)OC(C)(C)C)C(=O)NS(=O)(=O)c1ccccc1 [Compound I-11, N-[(1,1-dimethylethoxy)carbonyl]-3-[(1-cyano-cyclopropylcarboxyl)amino]-L-alanyl-(4R)-4-[(7-methoxy-2-phenyl-4-quinolinyl)oxy]-L-prolyl-1-amino-2-ethenyl-N-(phenylsulfonyl)-(1R,2S)-cyclopropanecarboxamide]
- IC50 [4, 7]: < 10 nM
- IC50 [5, 8]: 100 to 1000 nM

Compound: C=C[C@@H]1C[C@]1(NC(=O)[C@@H]1C[C@@H](Oc2cc(-c3ccccc3)nc3cc(OC)ccc23)CN1C(=O)[C@H](CC1CO1)NC(=O)OC(C)(C)C)C(=O)NS(=O)(=O)c1ccccc1 (stereo partly drawn) [Compound I-6, (2S)-2-[[(1,1-dimethylethoxy)carbonyl]amino]-3-oxiranepropanoyl-(4R)-4-[(7-methoxy-2-phenyl-4-quinolinyl)oxy]-L-prolyl-1-amino-2-ethenyl-N-(phenylsulfonyl)-(1R,2S)-cyclopropanecarboxamide]
- IC50 [4, 7]: < 10 nM
- IC50 [5, 8]: 100 to 1000 nM
